This experiment concerns the target PIK3CD (Human) (UniProt O00329). Put plainly: Assessment of PIK3CD Kinase Activity (Scintillation Proximity Assay).
Sequence of PIK3CD (Human) (O00329 whole entry, looked up): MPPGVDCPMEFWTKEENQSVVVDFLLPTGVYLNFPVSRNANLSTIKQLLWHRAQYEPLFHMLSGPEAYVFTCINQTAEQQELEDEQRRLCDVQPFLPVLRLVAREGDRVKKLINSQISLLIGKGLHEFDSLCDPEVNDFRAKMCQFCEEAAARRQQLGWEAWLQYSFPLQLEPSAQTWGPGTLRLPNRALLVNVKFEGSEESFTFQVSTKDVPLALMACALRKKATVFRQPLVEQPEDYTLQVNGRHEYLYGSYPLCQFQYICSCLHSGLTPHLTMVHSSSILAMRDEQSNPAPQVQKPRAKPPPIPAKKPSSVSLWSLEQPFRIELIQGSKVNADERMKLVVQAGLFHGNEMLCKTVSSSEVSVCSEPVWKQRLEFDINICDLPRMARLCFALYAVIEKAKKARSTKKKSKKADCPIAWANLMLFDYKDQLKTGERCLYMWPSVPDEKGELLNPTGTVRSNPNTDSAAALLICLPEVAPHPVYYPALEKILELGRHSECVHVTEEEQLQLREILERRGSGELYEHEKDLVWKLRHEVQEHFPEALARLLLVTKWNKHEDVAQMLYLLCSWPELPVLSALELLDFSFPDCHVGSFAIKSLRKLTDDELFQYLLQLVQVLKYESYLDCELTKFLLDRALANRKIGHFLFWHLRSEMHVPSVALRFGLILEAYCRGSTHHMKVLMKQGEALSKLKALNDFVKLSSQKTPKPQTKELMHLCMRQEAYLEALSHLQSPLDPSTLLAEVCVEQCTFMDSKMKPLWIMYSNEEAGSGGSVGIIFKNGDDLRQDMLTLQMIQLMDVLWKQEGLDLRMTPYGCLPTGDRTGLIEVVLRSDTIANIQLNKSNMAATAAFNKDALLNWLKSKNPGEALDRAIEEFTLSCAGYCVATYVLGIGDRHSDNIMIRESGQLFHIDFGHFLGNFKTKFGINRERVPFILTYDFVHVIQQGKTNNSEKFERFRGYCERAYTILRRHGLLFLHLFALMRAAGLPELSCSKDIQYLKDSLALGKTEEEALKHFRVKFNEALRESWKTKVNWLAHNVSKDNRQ
For `COc1c(C(C)n2nc(C)c3c(N)ncnc32)cc(Cl)c(Cl)c1C1CN(C[C@H](C)O)C1` (some centres undefined), the 50% inhibitory concentration (IC50) was at most 10 nM. For `COc1c(C(C)n2nc(C)c3c(N)ncnc32)cc(Cl)c(C#N)c1C1CN(CC2CCOCC2)C1` (centres undefined), the IC50 was at most 10 nM.

Turning to `CCOc1c(C(C)n2nc(C)c3c(N)ncnc32)cc(Cl)c(C#N)c1-c1ccc(C(C)(C)O)nc1` (centres undefined), the concentration for half-maximal inhibition (IC50) is at most 10 nM. Next, `COc1c(C(C)n2nc(C(F)F)c3c(N)ncnc32)cc(C#N)c(C)c1C1CN(CC(F)F)C1` (centres undefined): at most 10 nM. As to `COc1c(C(C)n2nc(C)c3c(N)ncnc32)cc(Cl)c(C)c1C1CN(C)C1` (centres undefined), the concentration for half-maximal inhibition (IC50) is at most 10 nM. For the molecule `CCOc1c(C(C)n2nc(C)c3c(N)ncnc32)cc(Cl)c(C#N)c1C1CN(C(=O)CC)C1` (centres undefined), the IC50 is at most 10 nM. In turn, `COc1c(C(C)n2nc(C)c3c(N)ncnc32)cc(Cl)c(F)c1C1CN(CC(C)(C)O)C1` (centres undefined) came in with a concentration for half-maximal inhibition (IC50) of at most 10 nM.

The molecule `CCOc1c(C(C)n2nc(C)c3c(N)ncnc32)cc(Cl)c(C)c1-c1cnn(C)c1` (centres undefined) came in with an IC50 of at most 10 nM. In turn, `CCOc1c(C(C)n2nc(C(F)F)c3c(N)ncnc32)cc(Cl)c(F)c1C1CN(CC(C)(C)O)C1` (centres undefined) showed an IC50 of at most 10 nM. Consider `COc1c(C(C)n2nc(C)c3c(N)ncnc32)cc(Cl)c(C)c1-c1cnn(C2CCN(C(C)=O)CC2)c1` (centres undefined), for which the half-maximal inhibitory concentration (IC50) was at most 10 nM. In the case of `COc1c(C(C)n2nc(C)c3c(N)ncnc32)cc(Cl)c(C)c1-c1ccc(C(=O)NCCO)nc1` (centres undefined) it was at most 10 nM; in that of `COc1c(C(C)n2ccc3c(N)ncnc32)cc(Cl)c(C)c1-c1ccc(C(=O)N(C)C)nc1` (centres undefined), 200 to 500 nM; in that of `CCOc1c(C(C)n2nc(C)c3c(N)ncnc32)cc(Cl)c(C#N)c1C1CN(C(C)(C)CO)C1` (centres undefined), at most 10 nM. Next, `COc1c(C(C)n2nc(C)c3c(N)ncnc32)cc(Cl)c(C)c1C1CCN(C)CC1` (centres undefined): at most 10 nM; `CCOc1c(C(C)n2nc(C(F)F)c3c(N)ncnc32)cc(Cl)c(F)c1C1CN(C[C@@H](C)O)C1` (some centres undefined): at most 10 nM; `CNC(=O)[C@@H](C)N1CC(c2c(C)c(C#N)cc(C(C)n3nc(C(F)F)c4c(N)ncnc43)c2OC)C1` (some centres undefined): at most 10 nM. For the molecule `COc1c(C(C)n2nc(C)c3c(N)ncnc32)cc(Cl)c(C#N)c1C1CN(CC(C)C)C1` (centres undefined), the IC50 was at most 10 nM. Next, `CCOc1c(C(C)n2nc(C)c3c(N)ncnc32)cc(Cl)c(C)c1C1CN(C(=O)c2cnn(C)c2)C1` (centres undefined): at most 10 nM; `CCOc1c(C(C)n2nc(C)c3c(N)ncnc32)cc(Cl)c(F)c1C1CN(C)C1` (centres undefined): at most 10 nM; `CCOc1c(C(C)n2nc(C)c3c(N)ncnc32)cc(Cl)c(C)c1C#N` (centres undefined): at most 10 nM.

As for `CCOc1c(C(C)n2ccc(=O)c3c(N)ncnc32)cc(Cl)c(C#N)c1-c1cncc(S(C)(=O)=O)c1` (centres undefined), the IC50 was at most 10 nM.

The molecule `CCOc1c(C(C)n2nc(C)c3c(N)ncnc32)cc(Cl)c(F)c1C1COC(=O)N1` (centres undefined) displayed an IC50 of at most 10 nM.

Molecule `CCOc1c(C(C)n2nc(C)c3c(N)ncnc32)cc(Cl)c(C)c1-c1cncc(S(C)(=O)=O)c1` (centres undefined) registered an IC50 of at most 10 nM. Regarding `CCOc1c(C(C)n2nc(C)c3c(N)ncnc32)cc(Cl)c(C#N)c1-c1ccc(-c2cnn(C)n2)nc1` (centres undefined), the IC50 was at most 10 nM. In turn, `COc1c(C(C)n2nc(C)c3c(N)ncnc32)cc(Cl)c(C#N)c1C1CN(C2CCOC2)C1` (centres undefined) showed an IC50 of at most 10 nM. In the case of `COc1c(C(C)n2nc(C)c3c(N)ncnc32)cc(Cl)c(C)c1C1CCN(CC(C)(C)O)CC1` (centres undefined) it was at most 10 nM; in that of `CCOc1c(C(C)n2nc(-c3cncc(C(=O)N(C)C)c3)c3c(N)ncnc32)cc(Cl)c(C)c1-c1ccc(C(=O)N(C)C)nc1` (centres undefined), at most 10 nM. `CCOc1c(C(C)n2nc(CC)c3c(N)ncnc32)cc(Cl)c(C)c1-c1ccc(C(=O)N(C)C)nc1` (centres undefined) displayed an IC50 of 50 to 200 nM.

In turn, `COc1c(C(C)n2nc(C)c3c(N)ncnc32)cc(Cl)c(C#N)c1C1CN(C)C1` (centres undefined) returned an IC50 of at most 10 nM. Turning to `CCOc1c(C(C)n2nc(C)c3c(N)ncnc32)cc(Cl)c(F)c1C1CNC(=O)O1` (centres undefined), the IC50 is at most 10 nM.

In turn, `CCOc1c(C(C)n2nc(C)c3c(N)ncnc32)cc(Cl)c(C#N)c1C1CN(C(C)(C)C(N)=O)C1` (centres undefined) returned an IC50 of at most 10 nM. In turn, `CCOc1c(C(C)n2nc(C)c3c(N)ncnc32)cc(Cl)c(C#N)c1C1CN(C(=O)C(C)(C)O)C1` (centres undefined) registered an IC50 of at most 10 nM.

In turn, `COc1c(C(C)n2nc(C)c3c(N)ncnc32)cc(Cl)c(C)c1CC#N` (centres undefined) returned an IC50 of at most 10 nM. In the case of `COc1c(C(C)n2nc(C)c3c(N)ncnc32)cc(Cl)c(C)c1C1CNC(=O)CO1` (centres undefined) it was at most 10 nM; in that of `COc1c(C(C)n2ccc(=O)c3c(N)ncnc32)cc(Cl)c(C)c1-c1ccc(C(=O)N(C)C)nc1` (centres undefined), at most 10 nM.

In turn, `CCN1CC(c2c(C#N)c(Cl)cc(C(C)n3nc(C)c4c(N)ncnc43)c2OC)C1` (centres undefined) yielded an IC50 of at most 10 nM. The molecule `COc1c(C(C)n2nc(C)c3c(N)ncnc32)cc(Cl)c(C)c1-c1cnn(CC(=O)N(C)C)c1` (centres undefined) displayed an IC50 of at most 10 nM. As for `COc1c(C(C)n2nc(C)c3c(N)ncnc32)cc(Cl)c(C)c1-c1ccc(NCCO)nc1` (centres undefined), the IC50 was at most 10 nM. On to `COc1c(C(C)n2nc(C)c3c(N)ncnc32)cc(Cl)c(C#N)c1C1CN(C2COC2)C1` (centres undefined), for which the IC50 was at most 10 nM. Next, `COc1c(C(C)n2nc(C)c3c(N)ncnc32)cc(Cl)c(F)c1C1CN(CCO)C1` (centres undefined): at most 10 nM; `CCOc1c(C(C)n2nc(C)c3c(N)ncnc32)cc(Cl)c(C#N)c1C1CNC1` (centres undefined): at most 10 nM; `COc1c(C(C)n2nc(C(F)F)c3c(N)ncnc32)cc(C#N)c(C)c1C1CN(C[C@H](C)O)C1` (some centres undefined): at most 10 nM. In the case of `COc1c(C(C)n2nc(C)c3c(N)ncnc32)cc(Cl)c(C)c1C1CN(CC2CC2)C1` (centres undefined) it was at most 10 nM; in that of `COc1c(C(C)n2nc(C)c3c(N)ncnc32)cc(Cl)c(C#N)c1C1CN(CC2CC2)C1` (centres undefined), at most 10 nM. In the case of `CCOc1c(C(C)n2nc(C)c3c(N)ncnc32)cc(C)c(C#N)c1-c1ccnc(S(C)(=O)=O)c1` (centres undefined) it was at most 10 nM. In turn, `Cc1c(Cl)cc(C(C)n2nc(C)c3c(N)ncnc32)c(OCC(F)F)c1-c1ccc(C(=O)N(C)C)nc1` (centres undefined) returned a half-maximal inhibitory concentration (IC50) of at most 10 nM.

As for `COc1c(C(C)n2nc(C)c3c(N)ncnc32)cc(Cl)c(C#N)c1C1CN(C(=O)N(C)C)C1` (centres undefined), the IC50 is at most 10 nM.

The molecule `COc1c(C(C)n2nc(C)c3c(N)ncnc32)cc(Cl)c(C)c1C1CN(C[C@H](C)O)C1` (some centres undefined) showed an IC50 of at most 10 nM. In turn, `COc1c(C(C)n2nc(C(F)F)c3c(N)ncnc32)cc(Cl)c(C)c1-c1ccc(C(=O)N(C)C)nc1` (centres undefined) gave an IC50 of at most 10 nM. As to `COc1c(C(C)n2nc(C(F)F)c3c(N)ncnc32)cc(Cl)c(F)c1C1CN(C[C@H](C)O)C1` (some centres undefined), the IC50 is at most 10 nM. Next, `COc1c(C(C)n2cc(-c3cn[nH]c3)c(=O)c3c(N)ncnc32)cc(Cl)c(C)c1-c1ccc(C(=O)N(C)C)nc1` (centres undefined): at most 10 nM; `CCOc1c(C(C)n2ccc(=O)c3c(N)ncnc32)cc(Cl)c(C#N)c1-c1ccc(C(=O)N(C)C)nc1` (centres undefined): at most 10 nM; `COc1c(C(C)n2nc(C)c3c(N)ncnc32)cc(Cl)c(C)c1-c1cncnc1` (centres undefined): at most 10 nM. In the case of `COc1c(C(C)n2nc(C)c3c(N)ncnc32)cc(Cl)c(C)c1-c1ccc(N(C)C)nc1` (centres undefined) it was at most 10 nM. The molecule `COc1c(C(C)n2nc(C)c3c(N)ncnc32)cc(Cl)c(C)c1-c1cncc(C(=O)N(C)CCN)c1` (centres undefined) gave a half-maximal inhibitory concentration (IC50) of at most 10 nM.

For the molecule `CNC(=O)N1CC(c2c(C)c(Cl)cc(C(C)n3nc(C)c4c(N)ncnc43)c2OC)C1` (centres undefined), the IC50 is at most 10 nM. In the case of `COc1c(C(C)n2nc(C)c3c(N)nccc32)cc(Cl)c(C)c1-c1ccc(C(=O)N(C)C)nc1` (centres undefined) it was 50 to 200 nM; in that of `CCOc1c(C(C)n2nc(-c3ccc(F)cc3)c3c(N)ncnc32)cc(Cl)c(C)c1-c1ccc(C(=O)N(C)C)nc1` (centres undefined), 10 to 50 nM; in that of `CCOc1c(C(C)n2nc(C)c3c(N)ncnc32)cc(Cl)c(C#N)c1C1CN(CC#N)C1` (centres undefined), at most 10 nM. Next, `CCOc1c(C(C)n2nc(C)c3c(N)ncnc32)cc(Cl)c(C#N)c1C1CN(CCC(F)(F)F)C1` (centres undefined): at most 10 nM; `COc1c(C(C)n2nc(C)c3c(N)ncnc32)cc(Cl)c(C)c1-c1cncc(C(=O)N2CC(C#N)C2)c1` (centres undefined): at most 10 nM. Next, `CCC(=O)N1CC(c2c(C#N)c(Cl)cc(C(C)n3nc(C)c4c(N)ncnc43)c2OC)C1` (centres undefined): at most 10 nM; `CCOc1c(C(C)n2nc(C)c3c(N)ncnc32)cc(Cl)c(C#N)c1-c1ccnc(C(=O)N(C)C)c1` (centres undefined): at most 10 nM.

As for `COc1c(C(C)n2nc(C)c3c(N)ncnc32)cc(Cl)c(C)c1C1CN(C(CO)C(F)(F)F)C1` (centres undefined), the IC50 is at most 10 nM. Consider `COc1c(C(C)n2nc(C)c3c(N)ncnc32)cc(Cl)c(C#N)c1C1CN(C(=O)OC(C)C)C1` (centres undefined), for which the IC50 is at most 10 nM.

In turn, `CNC(=O)N1CC(c2c(C#N)c(Cl)cc(C(C)n3nc(C)c4c(N)ncnc43)c2OC)C1` (centres undefined) gave an IC50 of at most 10 nM. In the case of `COc1c(C(C)n2nc(C)c3c(N)ncnc32)cc(Cl)c(C#N)c1C1CN(C[C@H](C)O)C1` (some centres undefined) it was at most 10 nM; in that of `COc1c(C(C)n2nc(C)c3c(N)ncnc32)cc(Cl)c(Cl)c1C1CN(C[C@@H](C)O)C1` (some centres undefined), at most 10 nM. In the case of `COc1c(C(C)n2nc(C)c3c(N)ncnc32)cc(Cl)c(C)c1C1CN(C[C@@H](O)C(F)(F)F)C1` (some centres undefined) it was at most 10 nM; in that of `COc1c(C(C)n2nc(C)c3c(N)ncnc32)cc(Cl)c(C)c1-c1cnn(CCO)c1` (centres undefined), at most 10 nM. With `CCOc1c(C(C)n2nc(-c3cccnc3)c3c(N)ncnc32)cc(Cl)c(C)c1-c1ccc(C(=O)N(C)C)nc1` (centres undefined), the IC50 is at most 10 nM. Molecule `CCOc1c(C(C)n2nc(C(F)F)c3c(N)ncnc32)cc(Cl)c(F)c1C1CN(C(C)C)C1` (centres undefined) yielded an IC50 of at most 10 nM.

Consider `CCOc1c(C(C)n2nc(C)c3c(N)ncnc32)cc(C)c(C#N)c1C1CN(CC(C)(C)O)C1` (centres undefined), for which the IC50 was at most 10 nM. In the case of `CCOc1c(C(C)n2nc(C)c3c(N)ncnc32)cc(C)c(C#N)c1-c1ccc(C(=O)N(C)C)nc1` (centres undefined) it was at most 10 nM; in that of `CCOc1c(C(C)n2nc(C)c3c(N)ncnc32)cc(Cl)c(C)c1C1CN(C(=O)[C@H](C)O)C1` (some centres undefined), at most 10 nM.

Regarding `CCOc1c(C(C)n2nc(C)c3c(N)ncnc32)cc(Cl)c(F)c1C1CN(C[C@H](C)O)C1` (some centres undefined), the IC50 is at most 10 nM.

In turn, `CCOc1c(C(C)n2nc(-c3ccn(C)n3)c3c(N)ncnc32)cc(Cl)c(C)c1-c1ccc(C(=O)N(C)C)nc1` (centres undefined) yielded an IC50 of at most 10 nM. Next, `COc1c(C(C)n2nc(C)c3c(N)ncnc32)cc(Cl)c(C)c1C1CN(CC(F)F)C1` (centres undefined): at most 10 nM.

Regarding `CNC(=O)c1ccc(-c2c(C)c(Cl)cc(C(C)n3ccc(=O)c4c(N)ncnc43)c2OC)cn1` (centres undefined), the IC50 is at most 10 nM.

The values are drawn from the Kinase Knowledgebase extract (Sharma et al. 2016).
